Assay results from ChEMBL document CHEMBL2074246, “Distinct groups of multidrug resistance modulating agents are distinguished by competition of P-glycoprotein-specific antibodies” (Biochem Biophys Res Commun, 2004).
Blank lines part the entries; values can stand above or below the molecule they belong to.

Key:
Assay type in all cases: functional, cell-based
[1] = target: T1, ATP-dependent translocase ABCB1 (Homo sapiens, UniProt P08183); assay: TP_TRANSPORTER: increase in Calcein-AM intracellular accumulation (Calcein-AM: 0.5uM, Nifedipine:125uM) in MDR1-expressing NIH-3T3 cells; conditions: mouse, nih3t3, 125 µM
[2] = target: T1, ATP-dependent translocase ABCB1; assay: TP_TRANSPORTER: increase in Calcein-AM intracellular accumulation (Calcein-AM: 0.5 uM, Prednisone: 200 uM) in MDR1-expressing NIH-3T3 cells; conditions: mouse, nih3t3, 200 µM
[3] = target: T1, ATP-dependent translocase ABCB1; assay: TP_TRANSPORTER: increase in Calcein-AM intracellular accumulation (Calcein-AM: 0.5 uM, Progesterone: 10 uM) in MDR1-expressing NIH-3T3 cells; conditions: mouse, nih3t3, 10 µM
[4] = target: T1, ATP-dependent translocase ABCB1; assay: TP_TRANSPORTER: increase in Calcein-AM intracellular accumulation (Calcein-AM: 0.5 uM, Propranolol: 500 uM) in MDR1-expressing NIH-3T3 cells; conditions: mouse, nih3t3, 500 µM
[5] = target: T1, ATP-dependent translocase ABCB1; assay: TP_TRANSPORTER: increase in Calcein-AM intracellular accumulation (Calcein-AM: 0.5 uM, Quinine: 20 uM) in MDR1-expressing NIH-3T3 cells; conditions: mouse, nih3t3, 20 µM
[6] = target: T1, ATP-dependent translocase ABCB1; assay: TP_TRANSPORTER: increase in Calcein-AM intracellular accumulation (Calcein-AM: 0.5 uM, Reserpine: 40 uM) in MDR1-expressing NIH-3T3 cells; conditions: mouse, nih3t3, 40 µM
[7] = target: T1, ATP-dependent translocase ABCB1; assay: TP_TRANSPORTER: increase in Calcein-AM intracellular accumulation (Calcein-AM: 0.5 uM, Rapamycin: 20 uM) in MDR1-expressing NIH-3T3 cells; conditions: mouse, nih3t3, 20 µM
[8] = target: T1, ATP-dependent translocase ABCB1; assay: TP_TRANSPORTER: increase in Calcein-AM intracellular accumulation (Calcein-AM: 0.5 uM, Tetracaine: 320 uM) in MDR1-expressing NIH-3T3 cells; conditions: mouse, nih3t3, 320 µM
[9] = target: T1, ATP-dependent translocase ABCB1; assay: TP_TRANSPORTER: increase in Calcein-AM intracellular accumulation (Calcein-AM: 0.5 uM, Trimipramine: 20 uM) in MDR1-expressing NIH-3T3 cells; conditions: mouse, nih3t3, 20 µM
[10] = target: T1, ATP-dependent translocase ABCB1; assay: TP_TRANSPORTER: increase in Calcein-AM intracellular accumulation (Calcein-AM: 0.5 uM, Tween 20: 1.4x10-3a%) in MDR1-expressing NIH-3T3 cells; conditions: mouse, nih3t3
[11] = target: T1, ATP-dependent translocase ABCB1; assay: TP_TRANSPORTER: increase in Calcein-AM intracellular accumulation (Calcein-AM: 0.5 uM, Valinomycin: 10 uM) in MDR1-expressing NIH-3T3 cells; conditions: mouse, nih3t3, 10 µM
[12] = target: T1, ATP-dependent translocase ABCB1; assay: TP_TRANSPORTER: increase in Calcein-AM intracellular accumulation (Calcein-AM: 0.5 uM, PSC-833: 8 uM) in MDR1-expressing NIH-3T3 cells; conditions: mouse, nih3t3, 8 µM
[13] = target: T1, ATP-dependent translocase ABCB1; assay: TP_TRANSPORTER: increase in Calcein-AM intracellular accumulation (Calcein-AM: 0.5 uM, Vinblastine: 70 uM) in MDR1-expressing NIH-3T3 cells; conditions: mouse, nih3t3, 70 µM
[14] = target: T1, ATP-dependent translocase ABCB1; assay: TP_TRANSPORTER: increase in Calcein-AM intracellular accumulation (Calcein-AM: 0.5 uM, o-Amsacrine: 5 uM) in MDR1-expressing NIH-3T3 cells; conditions: mouse, nih3t3, 5 µM
[15] = target: T1, ATP-dependent translocase ABCB1; assay: TP_TRANSPORTER: increase in Calcein-AM intracellular accumulation (Calcein-AM: 0.5 uM, Ivermectin: 20 uM) in MDR1-expressing NIH-3T3 cells; conditions: mouse, nih3t3, 20 µM

T1 sequence (P08183 whole entry): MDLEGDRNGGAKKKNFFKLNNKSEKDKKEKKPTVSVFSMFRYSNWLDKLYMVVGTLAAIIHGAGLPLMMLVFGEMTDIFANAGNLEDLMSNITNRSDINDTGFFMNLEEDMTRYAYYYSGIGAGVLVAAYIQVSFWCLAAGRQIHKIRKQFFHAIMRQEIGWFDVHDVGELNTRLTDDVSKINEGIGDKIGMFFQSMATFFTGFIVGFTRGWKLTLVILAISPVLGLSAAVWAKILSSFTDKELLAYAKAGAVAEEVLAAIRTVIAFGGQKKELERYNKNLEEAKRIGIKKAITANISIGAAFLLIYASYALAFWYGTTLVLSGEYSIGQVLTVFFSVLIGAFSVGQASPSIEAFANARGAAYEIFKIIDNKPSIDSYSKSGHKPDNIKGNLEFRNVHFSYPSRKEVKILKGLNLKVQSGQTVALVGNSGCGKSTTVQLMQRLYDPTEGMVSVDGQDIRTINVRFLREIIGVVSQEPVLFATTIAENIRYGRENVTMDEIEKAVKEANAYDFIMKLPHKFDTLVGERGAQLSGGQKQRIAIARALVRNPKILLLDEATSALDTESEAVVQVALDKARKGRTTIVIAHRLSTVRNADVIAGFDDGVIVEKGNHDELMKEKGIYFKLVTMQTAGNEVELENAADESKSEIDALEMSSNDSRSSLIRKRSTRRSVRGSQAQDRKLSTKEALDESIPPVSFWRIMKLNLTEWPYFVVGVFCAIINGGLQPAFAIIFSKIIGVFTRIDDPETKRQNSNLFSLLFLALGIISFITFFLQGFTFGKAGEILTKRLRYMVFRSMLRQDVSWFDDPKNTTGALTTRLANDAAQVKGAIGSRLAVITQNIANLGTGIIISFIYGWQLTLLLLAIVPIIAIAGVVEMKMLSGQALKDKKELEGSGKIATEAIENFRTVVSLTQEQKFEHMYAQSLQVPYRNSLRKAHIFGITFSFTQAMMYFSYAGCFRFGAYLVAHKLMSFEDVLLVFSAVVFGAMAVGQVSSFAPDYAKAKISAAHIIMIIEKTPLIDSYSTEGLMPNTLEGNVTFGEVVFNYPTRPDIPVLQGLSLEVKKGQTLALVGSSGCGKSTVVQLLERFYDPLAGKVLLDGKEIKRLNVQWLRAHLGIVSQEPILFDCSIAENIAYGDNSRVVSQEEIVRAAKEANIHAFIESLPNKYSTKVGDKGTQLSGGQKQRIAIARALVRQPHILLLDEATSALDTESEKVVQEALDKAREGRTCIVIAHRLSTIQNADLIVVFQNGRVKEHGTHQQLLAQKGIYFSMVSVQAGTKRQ

Molecule: COC(=O)C1=C(C)NC(C)=C(C(=O)OC)C1c1ccccc1[N+](=O)[O-] [NIFEDIPINE]
- Activity [1]: inhibitor [+]

- Activity [2]: inhibitor [+]
Molecule: C[C@]12C=CC(=O)C=C1CC[C@@H]1[C@@H]2C(=O)C[C@@]2(C)[C@H]1CC[C@]2(O)C(=O)CO [PREDNISONE]

Molecule: CC(=O)[C@H]1CC[C@H]2[C@@H]3CCC4=CC(=O)CC[C@]4(C)[C@H]3CC[C@]12C [PROGESTERONE]
- Activity [3]: inhibitor [+]

- Activity [4]: inhibitor [+]
Molecule: CC(C)NCC(O)COc1cccc2ccccc12 (stereo not given) [PROPRANOLOL]

- Activity [5]: inhibitor [+]
Molecule: C=C[C@H]1C[N@@]2CC[C@H]1C[C@H]2[C@H](O)c1ccnc2ccc(OC)cc12 [QUININE]

- Activity [6]: inhibitor [+]
Molecule: COC(=O)[C@H]1[C@H]2C[C@@H]3c4[nH]c5cc(OC)ccc5c4CCN3C[C@H]2C[C@@H](OC(=O)c2cc(OC)c(OC)c(OC)c2)[C@@H]1OC [RESERPINE]

- Activity [7]: inhibitor [+]
Molecule: CO[C@H]1C[C@@H]2CC[C@@H](C)[C@@](O)(O2)C(=O)C(=O)N2CCCC[C@H]2C(=O)O[C@H]([C@H](C)C[C@@H]2CC[C@@H](O)[C@H](OC)C2)CC(=O)[C@H](C)/C=C(\C)[C@@H](O)[C@@H](OC)C(=O)[C@H](C)C[C@H](C)/C=C/C=C/C=C/1C [SIROLIMUS]

- Activity [8]: inhibitor [+]
Molecule: CCCCNc1ccc(C(=O)OCCN(C)C)cc1 [TETRACAINE]

- Activity [9]: inhibitor [+]
Molecule: CC(CN(C)C)CN1c2ccccc2CCc2ccccc21 (stereo not given) [TRIMIPRAMINE]

- Activity [10]: inhibitor [+]
Molecule: CCCCCCCCCCCC(=O)OCCOCCOCCOCCOCCOCCOCCOCCOCCOCCOCCOCCOCCOCCOCCOCCOCCOCCOCCOCCOCC(OCCOCCOCCOCCOCCOCCOCCOCCOCCOCCOCCOCCOCCOCCOCCOCCOCCOCCOCCOCCO)C1OCC(OCCOCCOCCOCCOCCOCCOCCOCCOCCOCCOCCOCCOCCOCCOCCOCCOCCOCCOCCOCCO)C1OCCOCCOCCOCCOCCOCCOCCOCCOCCOCCOCCOCCOCCOCCOCCOCCOCCOCCOCCOCCO (stereo not given) [TWEEN 20]

Molecule: CC(C)[C@@H]1NC(=O)[C@H](C)OC(=O)[C@@H](C(C)C)NC(=O)[C@@H](C(C)C)OC(=O)[C@H](C(C)C)NC(=O)[C@H](C)OC(=O)[C@@H](C(C)C)NC(=O)[C@@H](C(C)C)OC(=O)[C@H](C(C)C)NC(=O)[C@H](C)OC(=O)[C@@H](C(C)C)NC(=O)[C@@H](C(C)C)OC1=O [VALINOMYCIN]
- Activity [11]: inhibitor [+]

- Activity [12]: inhibitor [+]
Molecule: C/C=C/C[C@@H](C)C(=O)[C@H]1C(=O)N[C@@H](C(C)C)C(=O)N(C)CC(=O)N(C)[C@@H](CC(C)C)C(=O)N[C@@H](C(C)C)C(=O)N(C)[C@@H](CC(C)C)C(=O)N[C@@H](C)C(=O)N[C@H](C)C(=O)N(C)[C@@H](CC(C)C)C(=O)N(C)[C@@H](CC(C)C)C(=O)N(C)[C@@H](C(C)C)C(=O)N1C [VALSPODAR]

- Activity [13]: inhibitor [+]
Molecule: CC[C@]1(O)C[C@@H]2CN(CCc3c([nH]c4ccccc34)[C@@](C(=O)OC)(c3cc4c(cc3OC)N(C)[C@H]3[C@@](O)(C(=O)OC)[C@H](OC(C)=O)[C@]5(CC)C=CCN6CC[C@]43[C@@H]65)C2)C1 [VINBLASTINE]

- Activity [14]: inhibitor [+]
Molecule: COc1cc(Nc2c3ccccc3nc3ccccc23)ccc1NS(C)(=O)=O [o-Amsacrine]

- Activity [15]: inhibitor [+]
Molecule: IVERMECTIN
